Like-named read-outs stand apart in the source and are kept apart here.
Columns and labels:
in vivo = assay: in vivo; parameters: species or system mouse; settings: mice, 250 mg/kg iv
Protocol: In rhesus monkeys, the pharmocokinetic parameters after an oral dose of […] of CS-87 are as follows:
^a Mice were administered the drug at a dose of 250 mg/kg iv.

in vitro = format: cell-based
Text: The effect of CS-87 on colony formation of human granulocytes-macrophage precursor cells was compared with the effects of AZT and CS-85 in FIG. 1. Vero cells are very fast growing cells, and it can be seen from FIG. 2a that up to a concentration of about 400 micromolar, there is relatively little toxicity to these cells. PBM cells are somewhat more sensitive to CS-87 than the Vero cells, but these cells will still tolerate a concentration of CS-87 of up to about 200 micromolar before significant inhibition is noted (see FIG. 2b).

L1210 cells = settings: in vitro; Lin et al.; Lin and Mancini; cited from earlier work
Coxsackie virus B4 = settings: Colla et al.; cited from earlier work
parainfluenza virus-3 = settings: Colla et al.; cited from earlier work
Sindbis virus = settings: Colla et al.; cited from earlier work
HIV-1 (strain LAV) = assay: Inhibition of HIV replication in human PBM cells, reverse transcriptase assay (Table 3)
[1] = Human immunodeficiency virus 1, PBMC, in Homo sapiens, read-out: RT % Inhibition (corrected)

Structure (SMILES): [N-]=[N+]=N[C@H]1C[C@H](n2ccc(=O)[nH]c2=O)O[C@@H]1CO [CS-87, 3'-azido-2',3'-dideoxyuridine]
- Ratio: % B/S (in vivo; 5 min): 6.3%
- Serum levels (in vivo; 5 min): 125700 ng/mL
- Kp at 5 min (in vivo; mouse, in vivo, iv, 250 mg/kg, 5 min, read-out: Ratio: % B/S): 0.043
- concentration at 5 min (in vivo; mouse, in vivo, iv, 250 mg/kg, 5 min, read-out: Serum levels): 71300 ng/mL
- concentration at 31 min (in vivo; mouse, in vivo, iv, 250 mg/kg, 31 min, read-out: Brain levels): 11100 ng/mL
- Kp at 31 min (in vivo; mouse, in vivo, iv, 250 mg/kg, 31 min, read-out: Ratio: % B/S): 0.122
- concentration at 31 min (in vivo; mouse, in vivo, iv, 250 mg/kg, 31 min, read-out: Serum levels): 91000 ng/mL
- concentration at 34 min (in vivo; mouse, in vivo, iv, 250 mg/kg, 34 min, read-out: Brain levels): 5670 ng/mL
- Kp at 34 min (in vivo; mouse, in vivo, iv, 250 mg/kg, 34 min, read-out: Ratio: % B/S): 0.102
- concentration at 34 min (in vivo; mouse, in vivo, iv, 250 mg/kg, 34 min, read-out: Serum levels): 55500 ng/mL
- concentration at 71 min (in vivo; mouse, in vivo, iv, 250 mg/kg, 71 min, read-out: Brain levels): 6400 ng/mL
- Kp at 71 min (in vivo; mouse, in vivo, iv, 250 mg/kg, 71 min, read-out: Ratio: % B/S): 0.261
- concentration at 71 min (in vivo; mouse, in vivo, iv, 250 mg/kg, 71 min, read-out: Serum levels): 24500 ng/mL
- concentration at 1.2 h (in vivo; mouse, in vivo, iv, 250 mg/kg, 72 min, read-out: Brain levels): 7330 ng/mL
- Kp at 1.2 h (in vivo; mouse, in vivo, iv, 250 mg/kg, 72 min, read-out: Ratio: % B/S): 0.134
- concentration at 1.2 h (in vivo; mouse, in vivo, iv, 250 mg/kg, 72 min, read-out: Serum levels): 54800 ng/mL
- MNTC (in vitro; human, PBM cells, FIG. 2b, read-out: concentration tolerated by PBM cells before significant inhibition is noted): ~200 µM
- MNTC (in vitro; monkey, Vero cells, FIG. 2a, read-out: concentration up to which there is relatively little toxicity to Vero cells): ~400 µM
- activity against L1210 cells (L1210 cells): inactive
- activity against Coxsackie virus B4 (Coxsackie virus B4): inactive
- activity against parainfluenza virus-3 (parainfluenza virus-3): inactive
- activity against Sindbis virus (Sindbis virus): inactive
- RT: Mean DPM/ml on day 5 (3 day old cells) (HIV-1 (strain LAV); 0.1 μM): 367,934 DPM/ml
- RT: Mean DPM/ml on day 5 (3 day old cells) (HIV-1 (strain LAV); 1 μM): 188,878 DPM/ml
- RT: Mean DPM/ml on day 5 (3 day old cells) (HIV-1 (strain LAV); 10 μM): 12,904 DPM/ml
- inhibition at 0.1 µM (HIV-1 (strain LAV); [1]): 42.3%
- inhibition at 1 µM (HIV-1 (strain LAV); [1]): 70.4%
- inhibition at 10 µM (HIV-1 (strain LAV); [1]): 98%
